The source of these data is paper PMC9804387, “Substrate Peptidomimetic Inhibitors of P. falciparum Plasmepsin X with Potent Antimalarial Activity” (Chemmedchem, 2022).

The subject of one series is PMIX. Further details: method as in PMID 29074775, PMID 32109369, PMID 23260352, PMID 29519896. The note with it: Figure 1, described in literature; cited from earlier work.
The next series has as its system PMX. The note with it: Figure 1, described in literature; cited from earlier work.
The next series concerns Pf 3D7. Further details: method as in PMID 29074775, PMID 32109369, PMID 23260352, PMID 29519896. Particulars: Figure 1, described in literature; cited from earlier work.
Series [1] deals with SERA5 processing by SUB1, indicative of upstream activity by PMX. Briefly: SERA5 processing inhibition assay in parasites (western blot, anti-SERA5). It is filed as cell-based, P. falciparum. Particulars: WM382 (1) at 2.5 nM. The text has this: PMX and PMIX ligand cleavage in P. falciparum parasites. It was next determined whether 38 could inhibit PMX and PMIX processing of known invasion and egress ligands in P. falciparum parasites. […] SERA5 is not a direct substrate of PMX, but is processed by SUB1 which itself is activated by PMX. The degree of downstream processing of SERA5 by SUB1 is indicative of PMX activity.
(§1) In this experiment, synchronized late trophozoite/early schizont stage parasites, expressing HA‐tagged ASP, were incubated with 38 (10 μM), the positive control WM382 (1) (2.5 nM) (a dual potent inhibitor of PMIX and PMX) and the DMSO vehicle control. Parasites from each treatment condition were then lysed and the processing of the known PMX and PMIX substrates were detected by western blot as a corollary of protease activity.
P. falciparum ASP and SERA5 Processing Inhibition Assay. P. falciparum substrate processing inhibition assays were performed as previously described.[28] Synchronized ring stage cultures were treated with test compounds 38 (10 μM) and WM382 (2.5 nM)[28] or DMSO as a vehicle control. […] HA‐tagged apical sushi protein (ASP) was detected in the merozoite fraction with anti‐HA mAb and SERA5 was detected in the supernatant fraction with an anti‐SERA5 polyclonal Ab. […]
Background: Immunoblotting shows a protein as a band on a membrane.

In series [2] the test system is PMIX processing of the ASP protein. Description: ASP processing inhibition assay in parasites (western blot, anti-HA). It is filed as cell-based, P. falciparum. The note with it: WM382 (1) at 2.5 nM, HA‐tagged ASP parasites. How it is done: as §1
P. falciparum ASP and SERA5 Processing Inhibition Assay. P. falciparum substrate processing inhibition assays were performed as previously described.[28] Synchronized ring stage cultures were treated with test compounds 38 (10 μM) and WM382 (2.5 nM)[28] or DMSO as a vehicle control. The parasite cultures were grown to the schizont stage before passing over LD magnetic columns (Miltenyi Biotech) to remove uninfected erythrocytes. Parasites were eluted from columns with RPMI 1640 (in‐house) culture medium to which the appropriate inhibitor at the same concentration had been added. Eluted parasites were adjusted to 5×10^6 schizonts/mL and 150 μL added per well of a 96‐well flat‐bottomed culture plate. […] HA‐tagged apical sushi protein (ASP) was detected in the merozoite fraction with anti‐HA mAb and SERA5 was detected in the supernatant fraction with an anti‐SERA5 polyclonal Ab. […]

The next series addresses T1, renin (Homo sapiens, UniProt P00797).
T1 construct: purchased Proteos R-001
T1 sequence (P00797 67-406): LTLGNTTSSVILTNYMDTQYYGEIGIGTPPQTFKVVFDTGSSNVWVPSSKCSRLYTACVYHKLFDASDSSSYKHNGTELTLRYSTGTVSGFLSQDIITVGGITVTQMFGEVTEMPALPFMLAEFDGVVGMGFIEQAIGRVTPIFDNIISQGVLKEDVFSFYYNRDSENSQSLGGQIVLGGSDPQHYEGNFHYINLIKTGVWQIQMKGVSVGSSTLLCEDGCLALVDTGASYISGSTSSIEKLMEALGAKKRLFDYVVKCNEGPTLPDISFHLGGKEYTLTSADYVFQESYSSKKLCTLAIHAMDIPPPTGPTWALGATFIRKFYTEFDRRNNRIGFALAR
Description: Renin FRET protease assay. It is filed as biochemical. Particulars: mean and SD of 4 replicate FRET experiments, 37 °C; highest concentration tested 11 μM.

A further series deals with T2, BACE‐1 (Homo sapiens, UniProt P56817).
T2 construct: purchased Sigma S4195
T2 sequence (P56817 46-460 limits assumed): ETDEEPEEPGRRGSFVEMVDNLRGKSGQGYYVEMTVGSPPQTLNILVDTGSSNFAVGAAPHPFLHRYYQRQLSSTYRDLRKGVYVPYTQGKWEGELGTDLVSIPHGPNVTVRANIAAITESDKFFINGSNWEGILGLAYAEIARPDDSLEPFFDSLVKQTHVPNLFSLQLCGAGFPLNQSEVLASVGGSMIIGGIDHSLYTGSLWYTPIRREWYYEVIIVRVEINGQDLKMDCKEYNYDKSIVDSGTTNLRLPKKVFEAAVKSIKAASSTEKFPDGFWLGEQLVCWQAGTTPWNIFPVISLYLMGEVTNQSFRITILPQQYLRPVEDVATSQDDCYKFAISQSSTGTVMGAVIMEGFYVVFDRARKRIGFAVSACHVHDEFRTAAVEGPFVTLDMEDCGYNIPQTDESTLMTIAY
Description: BACE-1 FRET protease assay. It is filed as biochemical. The note with it: mean and SD of 4 replicate FRET experiments, 37 °C; highest concentration tested 11 μM.

Another series deals with T3, cathepsin D (Homo sapiens, UniProt P07339).
T3 construct: purchased Athens Research 16-12-030104
T3 sequence (P07339 65-412): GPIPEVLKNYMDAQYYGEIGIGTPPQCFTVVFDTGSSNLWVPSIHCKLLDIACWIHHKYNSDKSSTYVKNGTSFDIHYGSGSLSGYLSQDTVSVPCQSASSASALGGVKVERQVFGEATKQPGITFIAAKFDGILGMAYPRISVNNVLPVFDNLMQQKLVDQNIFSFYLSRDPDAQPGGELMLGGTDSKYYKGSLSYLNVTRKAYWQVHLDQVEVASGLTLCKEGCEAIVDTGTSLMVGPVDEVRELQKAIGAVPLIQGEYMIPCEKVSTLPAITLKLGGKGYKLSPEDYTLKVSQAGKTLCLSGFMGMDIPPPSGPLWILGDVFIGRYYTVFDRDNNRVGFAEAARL
Description: Cathepsin D FRET protease assay. It is filed as biochemical. Particulars: mean and SD of 4 replicate FRET experiments, 37 °C; highest concentration tested 11 μM.

In the next series the target is T4, recombinant Pf PMIX (Plasmodium falciparum, UniProt Q8ILG2).
T4 construct: made in house
T4 sequence (Q8ILG2 whole entry): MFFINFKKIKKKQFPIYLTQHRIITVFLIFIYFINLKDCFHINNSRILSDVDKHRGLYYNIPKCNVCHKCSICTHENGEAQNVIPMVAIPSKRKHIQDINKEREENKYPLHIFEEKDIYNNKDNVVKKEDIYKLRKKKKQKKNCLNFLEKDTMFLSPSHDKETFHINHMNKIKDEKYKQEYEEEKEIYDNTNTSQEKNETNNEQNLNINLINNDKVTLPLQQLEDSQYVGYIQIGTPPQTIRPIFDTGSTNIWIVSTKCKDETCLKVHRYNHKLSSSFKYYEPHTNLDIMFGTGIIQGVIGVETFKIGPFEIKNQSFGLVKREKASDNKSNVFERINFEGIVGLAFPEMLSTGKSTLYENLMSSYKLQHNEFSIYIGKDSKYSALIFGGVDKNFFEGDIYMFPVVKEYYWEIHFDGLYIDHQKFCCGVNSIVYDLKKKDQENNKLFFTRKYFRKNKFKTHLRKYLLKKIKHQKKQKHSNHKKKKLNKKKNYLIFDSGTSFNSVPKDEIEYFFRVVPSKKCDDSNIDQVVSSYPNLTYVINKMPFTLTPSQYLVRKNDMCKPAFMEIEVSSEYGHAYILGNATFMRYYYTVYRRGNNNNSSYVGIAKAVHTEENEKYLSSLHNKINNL
Description: PMIX FRET protease assay. Particulars: mean and SD of 4 replicate FRET experiments, 37 °C. It is filed as biochemical, P. falciparum. How it is done:
(§2) FRET Protease Assays. FRET protease assays were performed as previously described.[19, 20, 27, 28] Briefly, ten‐point 1 : 3‐fold dilution series of the compounds were prepared in 384‐well black low volume assay plates (Greiner) using an Echo555 (Labcyte). 10 mM compound stocks were transferred into assay plates such that the starting concentration was 90 μM (Pv PMV assays), 11.25 μM (renin, cathepsin D and BACE‐1 assays) or 100 nM and 10 μM (Pf PMX and Pf PMIX assays). All wells were backfilled to 200 nL DMSO such that the DMSO concentration remained constant across the assay plates (1 % final). All compound potency assays were conducted in 20 μL total volume. For each assay, 10 μL of recombinant enzymes in respective assay buffers (Table S2) were dispensed into compound containing assay plates using a Multidrop‐Combi dispenser and allowed to incubate for 15 min. Recombinant Pf PMX, Pf PMIX and Pv PMV were expressed as previously described,[23, 27, 28] and recombinant human aspartyl proteases were purchased commercially. 10 μL of the fluorogenic peptide substrates incubated at 37 °C for the duration and conditions noted in Table S2. Samples were excited at 340 nm and fluorescence emission measured at 492 nm using an Envision fluorescence plate reader (Perkin‐Elmer). The 0 % inhibition control contained DMSO alone (1 % final) and the 100 % inhibition control was in the absence of enzyme. Half‐maximal inhibitory concentration (IC50) values were calculated by GraphPad Prism (8.0.2) software using a nonlinear regression four‐parameter fit analysis using a sigmoidal dose response (variable slope).
(§3) Table S2 . P rotease FRET assay conditions.
(§4) PMX as sa y PMIX PM V assay Renin assay Cathepsin D assay BA CE-1 assay E nzy me prot e as e 0.25 nM pro te a se 6 nM prot e as e q ua nti ty 0.1 nM pro t ea se 1.5 nM pro t ea se 2.5 nM pro t ea se 3 nM (Pro te os #R-001) ( Athe ns Re sea rc h (Sigma #S4195) […]
(§5) 25mM so di um acetate, 100 mM 25 mM M E S, 25 m M 50 mM Tr is, 100 mM 100 mM so di u m 20 mM so dium Buffer acetate, 0.005% sodium chloride and Tris-HCl, 0.01% N aC l, 0. 1% Bri j-35, acetate 0.02% scetate, 0.05% […]
(§6) Sub str at e DABCYL- ( DA BC YL ) - DABCYL- DABCYL-(γ- Ab u) - E[E(EDANS)]KPIL […]

In series [3] the test system is P. falciparum (Pf) 3D7 parasites. Briefly: P. falciparum LDH viability assay. It is filed as cell-based. The note with it: Plasmodium falciparum, 3D7, 72 h, LDH activity, 72 h at 37 °C; mean and SD of 3 independent experiments. How it is done: P. falciparum LDH Viability Assay. P. falciparum LDH viability assays were performed as previously described.[40] Briefly, a ten‐point 1 : 3‐fold dilution series of the compounds were pre‐dispensed in 384‐well assay plates (Grenier), and RPMI/AlbuMAX growth media inoculated with synchronized ring stage P. falciparum parasites. 10 mM compound stocks were transferred into the assay plates such that the starting concentration was 10 μM. Plates were incubated for 72 h and then frozen at −80 °C overnight. Lactate dehydrogenase (LDH) activity was quantified with APAD by measuring absorbance of NBT at 650 nm. Data were normalized to percent growth inhibition using the positive control of 0.1 % DMSO alone and the negative control of 100 nM chloroquine. Half‐maximal effective concentration (EC50) values were calculated by GraphPad Prism (8.0.2) software using a nonlinear regression four‐parameter fit analysis using a sigmoidal dose response (variable slope).

A further series concerns the target T5, recombinant Pv PMV (Plasmodium vivax, UniProt A5K302).
T5 construct: made in house
Briefly: PMV FRET protease assay. It is filed as biochemical. How it is done:
as §2, §3, §4, §5, §6

A further series deals with T6, recombinant Pf PMX (Plasmodium falciparum, UniProt Q8IAS0).
T6 construct: made in house
T6 sequence (Q8IAS0 222-573): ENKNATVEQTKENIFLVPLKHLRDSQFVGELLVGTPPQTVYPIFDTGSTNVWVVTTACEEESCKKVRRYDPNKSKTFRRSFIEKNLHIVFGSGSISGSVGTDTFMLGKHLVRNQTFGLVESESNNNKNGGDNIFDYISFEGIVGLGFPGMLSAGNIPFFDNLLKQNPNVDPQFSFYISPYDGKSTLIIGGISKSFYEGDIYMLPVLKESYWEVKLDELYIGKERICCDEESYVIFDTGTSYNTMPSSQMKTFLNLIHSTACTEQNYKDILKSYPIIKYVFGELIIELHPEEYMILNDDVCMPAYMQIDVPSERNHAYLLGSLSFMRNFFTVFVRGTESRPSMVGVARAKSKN
Description: PMX biochemical FRET assay (Rh2N fluorogenic substrate cleavage). Particulars: 37 °C. How it is done: as §2, with “Half‐maximal inhibitory concentration (IC50) values were calculated by GraphPad Prism (8.0.2) software using a nonlinear regression four‐parameter fit analysis using a sigmoidal dose response (variable slope).” left out
as §3, §4, §5, §6

Another series in a line: in vitro. It is filed as cell-based. Particulars: human. How it is done: HepG2 Cytotoxicity Assay. HepG2 cytotoxicity assays were performed as previously described.[41] Briefly, human hepatocyte HepG2 cells were cultured in DMEM supplemented with 10 % FCS at 37 °C and 5 % CO2 in a humidified incubator. Cells were seeded at 1000 cells/well in 50 μL in 384‐well plates (Grenier) and compounds incubated in ten‐point 1 : 2‐fold dilution series for 48 h. Cytotoxicity was determined using Cell Titer‐Glo (Promega), normalized to DMSO alone controls (100 % viability) and control compound Bortezomib (0 % viability at 10 μM). CC50 values were calculated by GraphPad Prism (8.0.2) software using a nonlinear regression four‐parameter fit analysis with the sigmoidal dose response (variable slope).

[4] abbreviates: Table 3, mean and SD of 4 replicate FRET experiments.
Where [5] appears, read: recombinant PMX, fluorogenic substrate (Rh2N) cleavage, 4 h, mean and SD of 4 replicates (Tables 1, 2).

Structures can show the parent of a compound that is named as a salt.

What is called IC50 is the concentration needed to halve the response being measured. What is called EC50 is the concentration giving half of the maximal effect. As usually defined, the CC50 is the concentration giving 50% cytotoxicity.

T5 sequence (A5K302 35-536): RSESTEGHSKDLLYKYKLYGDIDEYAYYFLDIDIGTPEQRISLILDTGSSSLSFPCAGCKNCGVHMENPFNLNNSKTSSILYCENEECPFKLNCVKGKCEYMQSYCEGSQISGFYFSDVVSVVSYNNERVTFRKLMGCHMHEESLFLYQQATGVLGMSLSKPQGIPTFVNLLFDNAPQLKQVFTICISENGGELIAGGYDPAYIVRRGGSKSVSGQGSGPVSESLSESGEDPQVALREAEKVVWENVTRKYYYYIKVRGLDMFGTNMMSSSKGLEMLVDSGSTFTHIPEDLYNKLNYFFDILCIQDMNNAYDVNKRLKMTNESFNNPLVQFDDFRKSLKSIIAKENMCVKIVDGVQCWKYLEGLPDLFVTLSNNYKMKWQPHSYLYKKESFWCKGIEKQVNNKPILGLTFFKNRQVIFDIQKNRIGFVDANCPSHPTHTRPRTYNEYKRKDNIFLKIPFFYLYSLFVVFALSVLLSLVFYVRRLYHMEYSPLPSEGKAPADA

In the case of `CCC1(CC)CC(=O)N([C@@H]2CCOc3ccc(C(=O)N[C@H]4CC(C)(C)Oc5ccccc54)cc32)C(=N)N1` [WM382], the IC50 in the series on PMIX was 0.4 nM; in the series with PMX, 0.04 nM. In the series with Pf 3D7, the EC50 is 0.6 nM. Moreover, the “SERA5 processing (western blot)” value in series [1] is listed as “complete inhibition of SERA5 processing”. Further, the “ASP processing by PMIX (western blot)” value in [2] was “inhibition of ASP processing”.

Take `CCC(C)C(NC(C)=O)C(=O)NC(CO)C(=O)NC(Cc1ccccc1)C(O)CNC(C)c1ccccc1` (centres unmarked) [Compd 26, Ac‐Ile‐Ser‐Phe‐HEA‐Bn(CH3)⋅TFA]: the half-inhibitory concentration (IC50) at renin was greater than 11000 nM; at BACE‐1, 2900 nM; against cathepsin D, greater than 11000 nM; at recombinant Pf PMIX, 2700 nM; at recombinant Pv PMV it was greater than 90000 nM; on recombinant Pf PMX (setting [4]) it was 10 nM. Also, the IC50 on recombinant Pf PMX (setting [5]) was 10 nM. Besides, the midpoint of the response in [3], the EC50, lay at 190 nM. The compound also gave a CC50 at 48 h in “in vitro” greater than 40000 nM.

`CC(C)[C@H](NC(=O)OCc1ccccc1)C(=O)N[C@@H](Cc1ccccc1)[C@H](O)CN[C@H](C)c1ccccc1` [Compd 34, Cbz‐Val‐Phe‐HEA‐Bn(CH3)]: the IC50 on renin was greater than 11000 nM; at BACE‐1, greater than 11000 nM; at cathepsin D, greater than 11000 nM; on recombinant Pf PMIX, 6900 nM; at recombinant Pv PMV, greater than 90000 nM; on recombinant Pf PMX (setting [4]) it was 10 nM. Besides, on recombinant Pf PMX (setting [5]), the IC50 is 10 nM. In [3], this compound showed an EC50 of 50 nM. Besides, the midpoint of cytotoxicity in the series “in vitro”, the CC50 at 48 h, lay at 13000 nM.
